Data from ChEMBL document CHEMBL5380791, “Modular Biomimetic Strategy Enabled Discovery of Simplified Pseudo-Natural Macrocyclic P-Glycoprotein Inhibitors Capable of Overcoming Multidrug Resistance” (J Med Chem, 2023).
The source made the active and inactive calls. The calls are words filed in the database; no cut-off is given here.

Key:
KBv200 [1] = test: Reversal of vinorelbine resistance in human KBv200 cells assessed as reduction in cell viability incubated for 72 hrs in presence of vinorelbine (reference value: 224 to 228.30 nM); assay type: functional, cell-based; conditions: KBv200, 72 h, read-out: IC50
KBv200 [2] = test: Reversal of paclitaxel resistance in human KBv200 cells assessed as reduction in cell viability incubated for 72 hrs in presence of paclitaxel (reference value: 392.9+/-196.5 nM); assay type: functional, cell-based; conditions: KBv200, 72 h
OVCAR-8 = test: Reversal of vinorelbine resistance in human OVCAR-8 cells assessed as reduction in cell viability incubated for 72 hrs in presence of vinorelbine (reference value: 16.2+/-4.7 nM); assay type: functional, cell-based; conditions: OVCAR-8, 72 h
KBv200 [3] = test: Antitumor activity against human KBv200 cells xenografted in Balb/cA nude mouse assessed as tumor growth inhibition at 75 mg/kg, ip qd administered for 13 days; assay type: functional; conditions: KBv200, 312 h, time 13 day
[4] = Toxicity in Balb/cA nude mouse xenografted with human KBv200 cells assessed as mortality at 75 mg/kg, ip qd administered for 13 days in presence of vinorelbine; assay type: organism-based; conditions: in vivo, 312 h, time 13 day
KBv200 [5] = test: Antitumor activity against human KBv200 cells xenografted in Balb/cA nude mouse assessed as T/C ratio at 75 mg/kg, ip qd administered for 13 days in presence of vinorelbine; assay type: functional; conditions: time 13 day
KBv200 [6] = test: Induction of apoptosis in human KBv200 cells assessed as increase in cleaved caspase 3 level at 5 uM incubated for 24 hrs in presence of vinorelbine by Western blotting analysis; assay type: functional, cell-based
[7] = Half life in CD-1 mouse at 3 mg/kg, iv; assay type: ADME, organism-based; conditions: in vivo
[8] = Tmax in CD-1 mouse at 25 mg/kg, ip; assay type: ADME, organism-based; conditions: in vivo
[9] = AUClast in CD-1 mouse at 25 mg/kg, ip; assay type: ADME, organism-based; design: dose 25 mg/kg, route ip; conditions: in vivo
[10] = Toxicity in Balb/cA nude mouse xenografted with human KBv200 cells assessed as changes in body weight at 75 mg/kg, ip qd administered for 13 days in presence of vinorelbine; assay type: organism-based; conditions: in vivo, 312 h, time 13 day
[11] = AUClast in CD-1 mouse at 30 mg/kg, po; assay type: ADME, organism-based; design: dose 30 mg/kg, route po; conditions: in vivo
KBv200 [12] = test: Downregulation of P-gp mRNA expression level in human KBV200 cells by qRT-PCR analysis; assay type: functional, cell-based
KBv200 [13] = test: Induction of apoptosis in human KBv200 cells assessed as increase in cleaved caspase 9 level at 5 uM incubated for 24 hrs in presence of vinorelbine by Western blotting analysis; assay type: functional, cell-based
[14] = Toxicity in Balb/cA nude mouse xenografted with human KBv200 cells assessed as changes in body weight at 75 mg/kg, ip qd administered for 13 days; assay type: organism-based; conditions: in vivo, 312 h, time 13 day
NCI/ADR-RES = test: Reversal of vinorelbine resistance in human NCI/ADR-RES cells assessed as reduction in cell viability incubated for 72 hrs in presence of vinorelbine (reference value: 6125.7+/-3267.7 nM); assay type: functional, cell-based
[15] = Cytotoxicity against human HEK293T cells assessed as reduction in cell viability incubated for 48 hrs by CCK-8 assay; assay type: toxicity, cell-based, HEK-293T
[16] = Oral bioavailability in CD-1 mouse at 30 mg/kg; assay type: ADME, organism-based; conditions: in vivo
[17] = AUCinf in CD-1 mouse at 25 mg/kg, ip; assay type: ADME, organism-based; design: dose 25 mg/kg, route ip; conditions: in vivo
[18] = Cmax in CD-1 mouse at 25 mg/kg, ip; assay type: ADME, organism-based; design: dose 25 mg/kg, route ip; conditions: in vivo
KBv200 [19] = test: Antitumor activity against human KBv200 cells xenografted in Balb/cA nude mouse assessed as mean tumor volume at 75 mg/kg, ip administered as single dose and measured on day 0 in presence of vinorelbine; assay type: functional
KBv200 [20] = test: Antitumor activity against human KBv200 cells xenografted in Balb/cA nude mouse assessed as mean tumor volume at 75 mg/kg, ip administered as single dose and measured on day 0; assay type: functional
KBv200 [21] = test: Reversal fold, ratio of vinorelbine IC50 for cytotoxicity against human KBv200 cells over test compound IC50 for reversal of vinorelbine resistance in human KBv200 cells; assay type: functional
K562 = test: Reversal of vinorelbine resistance in human K562 cells assessed as reduction in cell viability incubated for 72 hrs in presence of vinorelbine (reference value: 5.9+/-0.2 nM); assay type: functional, cell-based; conditions: K562, 72 h
KBv200 [22] = test: Induction of apoptosis in human KBv200 cells assessed as increase in cleaved PARP level at 5 uM incubated for 24 hrs in presence of vinorelbine by Western blotting analysis; assay type: functional, cell-based
[23] = Clearance in CD-1 mouse at 3 mg/kg, iv; assay type: ADME, organism-based; conditions: in vivo
KBv200 [24] = test: Induction of apoptosis in human KBv200 cells assessed as increase in cleaved PARP level at 5 uM incubated for 24 hrs by Western blotting analysis; assay type: functional, cell-based
KBv200 [25] = test: Antitumor activity against human KBv200 cells xenografted in Balb/cA nude mouse assessed as mean tumor volume at 75 mg/kg, ip qd administered for 13 days in presence of vinorelbine; assay type: functional; conditions: time 13 day
KBv200 [26] = test: Antitumor activity against human KBv200 cells xenografted in Balb/cA nude mouse assessed as T/C ratio at 75 mg/kg, ip qd administered for 13 days; assay type: functional; conditions: time 13 day
[27] = Toxicity in Balb/cA nude mouse xenografted with human KBv200 cells assessed as mortality at 75 mg/kg, ip qd administered for 13 days; assay type: organism-based; conditions: in vivo, 312 h, time 13 day
[28] = Cmax in CD-1 mouse at 30 mg/kg, po; assay type: ADME, organism-based; design: dose 30 mg/kg, route po; conditions: in vivo
KBv200 [29] = test: Induction of apoptosis in human KBv200 cells assessed as increase in cleaved caspase 3 level at 5 uM incubated for 24 hrs by Western blotting analysis; assay type: functional, cell-based
[30] = AUClast in CD-1 mouse at 3 mg/kg, iv; assay type: ADME, organism-based; design: dose 3 mg/kg, route iv; conditions: in vivo
[31] = Tmax in CD-1 mouse at 30 mg/kg, po; assay type: ADME, organism-based; conditions: in vivo
[32] = AUCinf in CD-1 mouse at 30 mg/kg, po; assay type: ADME, organism-based; design: dose 30 mg/kg, route po; conditions: in vivo
KBv200 [33] = test: Antitumor activity against human KBv200 cells xenografted in Balb/cA nude mouse assessed as tumor growth inhibition at 75 mg/kg, ip qd administered for 13 days in presence of vinorelbine; assay type: functional; conditions: KBv200, 312 h, time 13 day
KB = test: Reversal of vinorelbine resistance in human KB cells assessed as reduction in cell viability incubated for 72 hrs in presence of vinorelbine (reference value: 7.4+/-2.2 nM); assay type: functional, cell-based
K562/Adr = test: Reversal of vinorelbine resistance in human K562/Adr cells assessed as reduction in cell viability incubated for 72 hrs in presence of vinorelbine (reference value: 7320.6+/-2115.2 nM); assay type: functional, cell-based
[34] = Half life in CD-1 mouse at 30 mg/kg, po; assay type: ADME, organism-based; conditions: in vivo
[35] = Cytotoxicity against human L02 cells assessed as reduction in cell viability incubated for 48 hrs by CCK-8 assay; assay type: toxicity, cell-based
KBv200 [36] = test: Antitumor activity against human KBv200 cells xenografted in Balb/cA nude mouse assessed as mean tumor volume at 75 mg/kg, ip qd administered for 13 days; assay type: functional; conditions: time 13 day
[37] = Half life in CD-1 mouse at 25 mg/kg, ip; assay type: ADME, organism-based; conditions: in vivo
[38] = Bioavailability in CD-1 mouse at 25 mg/kg, ip; assay type: ADME, organism-based; conditions: in vivo
[39] = biological target: ATP-dependent translocase ABCB1 (Homo sapiens, UniProt P08183); test: Inhibition of P-gp in human KBv200 cells assessed as induction of conformation change by measuring increase in UIC-2 binding level at 50 uM incubated for 10 mins by UIC-2 reactivity shift assay; assay type: cell-based; conditions: kbv200, 10 min
Chain of ATP-dependent translocase ABCB1 (P08183 whole entry): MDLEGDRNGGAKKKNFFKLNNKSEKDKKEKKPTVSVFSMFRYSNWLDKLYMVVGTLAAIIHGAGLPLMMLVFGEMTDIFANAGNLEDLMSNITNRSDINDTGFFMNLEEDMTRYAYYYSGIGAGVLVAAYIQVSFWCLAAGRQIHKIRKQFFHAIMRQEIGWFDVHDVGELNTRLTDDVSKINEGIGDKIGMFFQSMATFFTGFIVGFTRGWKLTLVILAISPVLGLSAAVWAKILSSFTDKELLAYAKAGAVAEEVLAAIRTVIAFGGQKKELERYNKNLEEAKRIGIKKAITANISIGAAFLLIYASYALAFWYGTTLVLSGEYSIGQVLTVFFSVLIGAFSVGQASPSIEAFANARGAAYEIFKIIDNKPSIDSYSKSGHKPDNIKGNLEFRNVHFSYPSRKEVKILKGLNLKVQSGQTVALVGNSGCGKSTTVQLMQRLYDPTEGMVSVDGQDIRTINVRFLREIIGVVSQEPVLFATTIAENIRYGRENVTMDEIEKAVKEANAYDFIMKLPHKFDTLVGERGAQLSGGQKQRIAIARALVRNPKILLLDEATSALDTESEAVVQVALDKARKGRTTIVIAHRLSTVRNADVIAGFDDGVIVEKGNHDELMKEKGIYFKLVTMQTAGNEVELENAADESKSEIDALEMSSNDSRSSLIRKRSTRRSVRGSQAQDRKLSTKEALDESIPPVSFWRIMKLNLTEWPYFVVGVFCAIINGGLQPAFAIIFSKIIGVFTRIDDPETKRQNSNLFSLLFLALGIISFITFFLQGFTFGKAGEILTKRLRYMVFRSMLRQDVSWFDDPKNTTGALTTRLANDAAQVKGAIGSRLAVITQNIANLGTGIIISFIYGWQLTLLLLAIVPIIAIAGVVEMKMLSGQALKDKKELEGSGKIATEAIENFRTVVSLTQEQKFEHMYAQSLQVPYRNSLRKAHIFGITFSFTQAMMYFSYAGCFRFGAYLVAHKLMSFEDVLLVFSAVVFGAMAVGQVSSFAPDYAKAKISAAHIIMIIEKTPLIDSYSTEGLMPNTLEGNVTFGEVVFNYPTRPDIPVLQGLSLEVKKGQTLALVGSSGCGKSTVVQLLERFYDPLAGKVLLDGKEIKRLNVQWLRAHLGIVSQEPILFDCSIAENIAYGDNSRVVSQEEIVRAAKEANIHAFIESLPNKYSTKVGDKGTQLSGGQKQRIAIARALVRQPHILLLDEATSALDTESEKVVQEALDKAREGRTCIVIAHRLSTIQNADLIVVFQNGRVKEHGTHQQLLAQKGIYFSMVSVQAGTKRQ

KBv200 [40] = test: Induction of apoptosis in human KBv200 cells assessed as increase in cleaved caspase 9 level at 5 uM incubated for 24 hrs by Western blotting analysis; assay type: functional, cell-based
KBv200 [41] = test: Reversal of adriamycin resistance in human KBv200 cells assessed as reduction in cell viability incubated for 72 hrs in presence of adriamycin (reference value: 1291.2+/-308.9 nM); assay type: functional, cell-based; conditions: KBv200, 72 h
[42] = AUCinf in CD-1 mouse at 3 mg/kg, iv; assay type: ADME, organism-based; design: dose 3 mg/kg, route iv; conditions: in vivo

Structure (SMILES): CC(C)[C@H]1NC(=O)/C(c2ccccc2)=C\C=C(\c2ccccc2)CNC(=O)CCCCCCCCCCCNC1=O
- IC50 (KBv200 [1]): 0.74 nM
- IC50 (KBv200 [2]): 8 nM
- IC50 (OVCAR-8): 6.8 nM
- inhibition in vivo at 75 mg/kg (KBv200 [3]): -13%
- Activity [4]: Non-Toxic
- T/C (KBv200 [5]): 52%
- Activity (KBv200 [6]): Active
- half-life [7]: 1.23 h
- Tmax [8]: 7.2 min
- AUC(0-t) [9]: 4400 ng·h/mL
- Activity [10]: Non-Toxic
- AUC(0-t) [11]: 2190 ng·h/mL
- Activity (KBv200 [12]): inactive
- Activity (KBv200 [13]): Active
- Activity [14]: Non-Toxic
- IC50 (NCI/ADR-RES): 619 nM
- IC50 at 48 h [15]: > 100000 nM
- bioavailability [16]: 24.7%
- AUC(0-inf) [17]: 5100 ng·h/mL
- Cmax [18]: 2390 ng/mL
- Activity (KBv200 [19]): 121.5 mm3
- Activity (KBv200 [20]): 121 mm3
- Ratio IC50 (KBv200 [21]): 386
- IC50 (K562): 1.4 nM
- Activity (KBv200 [22]): Active
- clearance [23]: 58.2 mL/min/kg
- Activity (KBv200 [24]): inactive
- Activity (KBv200 [25]): 1132.6 mm3
- T/C (KBv200 [26]): 113%
- Activity [27]: Non-Toxic
- Cmax [28]: 1380 ng/mL
- Activity (KBv200 [29]): inactive
- AUC(0-t) [30]: 887 ng·h/mL
- Tmax [31]: 0.25 h
- AUC(0-inf) [32]: 2200 ng·h/mL
- inhibition in vivo at 75 mg/kg (KBv200 [33]): 48%
- IC50 (KB): 2.2 nM
- IC50 (K562/Adr): 1210 nM
- half-life [34]: 1.24 h
- IC50 at 48 h [35]: > 100000 nM
- Activity (KBv200 [36]): 2318.6 mm3
- half-life [37]: 11.2 h
- bioavailability [38]: 59.5%
- Activity [39]: Active
- Activity (KBv200 [40]): inactive
- IC50 (KBv200 [41]): 107 nM
- AUC(0-inf) [42]: 888 ng·h/mL
